Experimental data reported in US9694050B2, “THY1 (CD90) as a novel therapy to control adipose tissue accumulation” (University of Rochester, priority 2012, dated 2017).

How the values were obtained:
[1] = tested on: human pre-adipocyte fibroblasts; experiment: Adipogenesis of human pre-adipocyte fibroblasts in adipogenic medium (Thy1 siRNA, SU6656); type: cell-based
Protocol: 3T3-L1 cells or primary fibroblasts were cultured to confluence before addition of the adipogenic medium. Cells were treated with an adipogenic medium containing 0.5 mM 3-isobutyl-1-methylxanthine, 0.25 μM dexamethasone, and 1 μg/ml insulin (all three from Sigma Aldrich, St. Louis, Mo.), 2 μM rosiglitazone (Cayman) for two days. After two days medium was replaced with dexamethasone, insulin and rosiglitazone for another 5-8 days. Media was replaced every 2 days through the duration of the experiment. After differentiation cells were analyzed for lipid accumulation and adipogenesis by Oil-red-O (Sigma Aldrich, St. Louis, Mo.) staining and AdipoRed (Cayman) staining as described previously. Lehmann et al., “Novel Anti-adipogenic Activity Produced by Human Fibroblasts,” Am J Physiol Cell Physiol 299(3):C672-81 (2010), which is hereby incorporated by reference in its entirety.
5-8×10^4 or 1×10^5 cells were seeded into 24 well or 6 well cell culture plates (Corning) and subsequently were transiently transfected with 50-200 nM of siRNA (Ambion) using Lipofectamine 2000 (Invitrogen) as the transfection reagent and following the manufacture's protocol. The cells were incubated with siRNA specific for Thy1 specific or a corresponding non-specific control siRNA for 3-4 days before the cells were subjected to adipogenic differentiation experiments as described above. At the start of the adipogenic differentiation experiment, the cells were again transiently transfected with 100 nM Thy1-specific or control siRNA.
Thy1 specific or control siRNA was introduced into human pre-adipocyte fibroblasts using Lipofectamine 2000. Fibroblasts were then treated with an adipogenic medium and adipogenesis was measured by visual inspection of lipid droplets, FABP4 expression and lipid accumulation. Total Thy1 protein expression and Thy1 surface expression were analyzed by western blot and flow cytometry, respectively. […] Cell images were captured to show the presence of lipid droplets in fibroblasts treated with adipogenic medium, and are shown in FIG. 12B. […]

Thy1 [2] = experiment: Thy1 expression in hMSCs treated with obesogens (qPCR, flow cytometry); type: cell-based, human
Protocol: In particular, hMSCs were induced to adipocytes with a rosiglitazone cocktail (adipogenic) or cocktail containing the putative obesogens BPA (1 μM), TBBPA (5 μM), or TBT (100 nM). […] The obesogen doses selected are based on literature and represent concentrations proposed to be found in human tissues. Roos et al., “Circulating Levels of Persistent Organic Pollutants in Relation to Visceral and Subcutaneous Adipose Tissue by Abdominal MRI,” Obesity (Silver Spring) (2012) and Antizar-Ladislao, B, “Environmental Levels, Toxicity and Human Exposure to Tributyltin (TBT)-Contaminated Marine Environment. A Review,” Environ Int 34(2):292-308 (2008), each of which is hereby incorporated by reference in its entirety. As noted above, the cells were cultured in adipogenic medium containing rosiglitazone, a PPARγ ligand that promotes adipogenesis and obesity, and the noted putative obesogens.
qPCR analysis of the mRNA levels of Thy1 and the adipogenic marker FABP4 was conducted. […] The same samples as in FIG. 4A were used to measure Thy1 mRNA levels by qPCR. […] Thy1 and FABP4 levels were normalized to TBP mRNA levels (control gene).
hMSCs were also treated with vehicle (DMSO), 20 uM TBBPA, or 10 uM rosiglitazone for 72 hrs, harvested and stained with a fluorescent anti-Thy1 antibody for analysis of Thy1 by flow cytometry.

Thy1 [3] = experiment: Thy1 expression in mouse MSCs cultured with obesogens (flow cytometry, western blotting); type: cell-based; conditions: 96 hrs; for Thy1, western blotting: concentrations in figure
Protocol: Mouse MSCs were cultured with obesogens for 96 hrs, harvested, and analyzed for Thy1 expression by flow cytometry or western blotting.

Erk1/2 = experiment: Western blot for phospho-Erk1/2 in 3T3-L1 cells; type: cell-based, mouse; conditions: Thy1 expressed in 3T3-L1 cells
Protocol: 3T3-L1 cells infected with a control or Thy1-expressing lentivirus (LV) were treated with 10 nM insulin-like growth factor (IGF)-1 for 0, 5, or 10 minutes. Cells were treated as described, then whole cell lysates were harvested and analyzed by western blot for phospho-Erk1/2 and GAPDH expression (FIG. 18A). Western blot images were analyzed by densitometry and phospho-Erk1/2 levels were normalized to GAPDH to adjust for total protein variations (FIG. 18B).
PPARγ phosphorylation at serine 82 (S82) inhibits ligand binding and severely reduces its ability to promote adipogenesis. […] To investigate if Thy1 regulates the Erk pathway, Thy1 was expressed in 3T3-L1 cells and the activity of Erk1/2 (which corresponds to phospho-Erk) was monitored by western blotting (see FIGS. 18A and 18B). […]

PPARγ = experiment: Western blot for PPARγ protein in 3T3-L1 cells; type: cell-based, mouse; conditions: expression of Thy1 in 3T3-L1 preadipocyte fibroblasts
Source text: Orbital fibroblasts from two individual human donors were separated into Thy1^− and Thy1+ subsets. Cells were harvested and analyzed by western blotting for PPARγ and actin (loading control). […] In addition, 3T3-L1 cells were transduced with control or human Thy1− encoding lentiviral (Lv) particles.
To test how Thy1 affects PPARγ, it was first considered whether Thy1 would down-regulate the expression of PPARγ protein. However, two different strains of human TED orbital fibroblasts, sorted into Thy1+ or Thy1^− subsets, expressed similar levels of PPARγ (FIG. 15A). […] Thus, other ways that Thy1 could influence the function of PPARγ were considered, as described below.

Fyn = experiment: Western blot for phospho-STAT5 (Fyn mediated phosphorylation); type: cell-based, human; conditions: Thy1 expression
human stem cells = experiment: Adipogenesis of human stem cells / preadipocytes given a proadipogenic cocktail; type: cell-based
Source text: Thy1 (or Thy-1, also termed CD90) is an N-glycosylated, glycophosphatidylinositol (GPI)-anchored membrane protein that was originally identified as a surface marker on mouse T cells and thymocytes. Thy1 is a surface marker of unknown function that is expressed on some stem cells and some fibroblasts. While Thy1 was discovered more than 35 years ago, its molecular function remains a mystery. The inventors of the present application have discovered that Thy1 is more than a surface marker; rather, it can control the fate of cells by preventing adipogenesis. […] Similarly, deliberate genetic over-expression of Thy1 has the same effect, preventing cells from becoming adipocytes.

[4] = Diet induced obesity in mice on a high fat diet, soluble Thy1 injected; type: in vivo, mouse; conditions: high fat diet (60% kcals from fat), minimum of 8 weeks, 0.2 or 0.4 mg/kg intravenous or subcutaneous
Source text: Milligram quantities of soluble Thy1 will be injected into mice receiving a high fat (60% kcals from fat) diet.
Mice fed a high fat diet and treated as in Table 2 will be weighed weekly for the duration of the experiment (minimum of 8 weeks). Following the study, mice will be sacked for fat depot quantification, histologic analysis and fat tissue will be analyzed by western blot for the adipogenic markers FABP4, C/EBPα, Fyn, and phospho-Fyn. Serum samples will also be acquired for analysis of Thy1, adiponectin and glucose levels.

[5] = induced to differentiate into adipocytes
[6] = human and mouse mesenchymal stem cells

For `CN(C)S(=O)(=O)c1ccc2c(c1)/C(=C/c1cc3c([nH]1)CCCC3)C(=O)N2` [SU6656], the “adipogenic effect of Thy1 siRNA (FABP4 mRNA, lipid accumulation)” value ([1]; Thy1 siRNA followed by adipocyte induction) was “ablated”, the “FABP4 protein expression, % of control, western blot” value [1, 5] was 30% and the “lipid accumulation, % of control” value [1, 5] was 55%.

With `CC(C)(c1cc(Br)c(O)c(Br)c1)c1cc(Br)c(O)c(Br)c1` [TBBPA, tetrabromobisphenol-A] the Thy1 expression (Thy1 [2]; MSCs treated with obesogens) was “reduced”, the “surface expression of Thy1, flow cytometry” value (Thy1 [2]; hMSCs, 20 uM, 72 hrs, vs vehicle (DMSO)) was “decreased” and the Thy1 expression (Thy1 [2]; [6]) was “dramatically reduced”. The “Thy1 surface expression, Mean Fluorescent Intensity” value (Thy1 [3]; 5 μM) was “dramatic reduction” and the “Thy1, western blotting” value (Thy1 [3]) was “reduction”.

With `CCC[CH2][Sn]([CH2]CCC)[CH2]CCC` [TBT, tributlytin] the Thy1 expression (Thy1 [2]; MSCs treated with obesogens) was “reduced”, the Thy1 expression (Thy1 [2]; [6]) was “dramatically reduced” and the “Thy1, western blotting” value (Thy1 [3]) was “reduction”.

With “Thy1: N-glycosylated, GPI-anchored membrane protein; human Thy1 SEQ ID NO:1; soluble form lacks the GPI anchor” the “increase of Erk1/2 phosphorylation compared to control 3T3-L1 cells” value (Erk1/2) was “greater than 3 fold”, the PPARγ protein levels (PPARγ) was “did not alter” and the “phospho-STAT5 levels, western blotting” value (Fyn) was “reduces”. The “human stem cell adipogenesis” value (human stem cells) was “blunts”, the becoming fat cells (human stem cells; human and mouse preadipocytes and primary human stem cells, proadipogenic cocktail containing a PPARγ ligand) was “prevent” and the fat accumulation [4] was “significantly less fat accumulation”. The weight gain [4] was “significantly less weight”.
